Results reported in patent US9555055B2, “Use of albiflorin and metabolites thereof” (priority 2010, dated 2017).
Counter-ions that a name gives are not always drawn. Marks after values point to notes of the source that are not given here.

Columns and labels:
Type in all cases: in vivo
ICR mice [1] = experiment: Spontaneous actions in mice; conditions: 14 days after administration
Protocol: (§1) 140 ICR mice (15-17 g, male, purchased from Institute of Laboratory Animal Sciences, CAMS & PUMC) were randomly divided into 10 groups (14 mice per group) as follows: paeoniflorin group at a dose of 100 mg/kg, paeoniflorin group at a dose of 50 mg/kg, paeoniflorin group at a dose of 25 mg/kg, paeoniflorin group at a dose of 12.5 mg/kg, albiflorin group at a dose of 28 mg/kg, albiflorin group at a dose of 14 mg/kg, albiflorin group at a dose of 7 mg/kg, normal saline control group, high-dose group of doxepin as a positive drug (25 mg/kg), and low-dose group of doxepin as a positive drug (1 mg/kg).

KM mice = experiment: Light-dark box test in mice (anti-anxiety test); conditions: 2.5 mg/kg/d gavage, 7 days, test 1 h after administration on Day 8
Protocol: Mice were randomly divided into 5 groups, i.e. high-dose group (14 mg/kg/d), medium-dose group (7 mg/kg/d), low-dose group (3.5 mg/kg/d) of Albiflorin, diazepam group (2.5 mg/kg/d), NS group. Gavage administration was performed once a day, for consecutive 7 days. During the administration, animals had free access to feed and water. The test was carried out 1 hour after the administration on Day 8.
Within the light-dark box (44 cm×21 cm×21 cm), the dark box accounts for one third thereof, with a cover on the top; while the light box accounts for two thirds thereof, providing illumination brightness; and there is a hole between the two boxes for animal to pass through. In the test, mice were placed in the center of the light box, back to the dark box, and then observed. The times of entering into the dark box followed by returning to the light box in mice were counted, as an index for the assession of anti-anxiety effect of a drug.

ICR mice [2] = experiment: Sleeping-inducing test of pentobarbital sodium at the subthreshold dose; conditions: 2 mg/kg, 14 days; pentobarbital sodium 35 mg/kg ip
ICR mice [3] = experiment: Sleep-prolonging test of pentobarbital sodium at the suprathreshold dose; conditions: 10 days, pentobarbital sodium 51 mg/kg ip
Protocol: (§2) If the mice were kept in a supine position for more than 1 min, it would be considered that the righting reflex was disappeared in mice. After spontaneously rolling over, the mice were immediately placed in a supine position. If the mice could roll over within 1 min, it would be considered that the righting reflex was recovered. The time of the righting reflex being disappeared and recovered in mice were recorded. The period from the mice being intraperitoneally injected with pentobarbital sodium until the righting reflex being disappeared in mice was recorded as sleep latency. The period from the righting reflex being disappeared in mice until the righting reflex being recovered in mice was recorded as sleep duration. The sleep duration of more than 5 min in mice was considered as being asleep.
(§3) The mice were administered with drugs for consecutive 10 days. 1 h after the last administration, the mice were intraperitoneally injected with the suprathreshold dose of pentobarbital sodium (51 mg/kg, 0.1 ml/10 g). The righting reflex being disappeared and recovered in mice were observed, and the time of the righting reflex being disappeared and recovered in mice were recorded. The evaluation criteria of sleep latency, sleep duration and sleep rate were the same as those in Section 7.2.1.

ICR mice [4] = experiment: Sleeping-inducing test of pentobarbital sodium at the subthreshold dose; conditions: 14 days, pentobarbital sodium 35 mg/kg ip
Protocol: as §1, §2
as §3, with “consecutive 14” for “consecutive 10”, “the subthreshold” for “the suprathreshold”, “sodium (35” for “sodium (51”

5-HT1A receptor = experiment: mRNA expression of 5-HT1A receptor in hippocampus of chronic stress rats (RT-PCR); conditions: 2.5 mg/kg/d, 21 days
Protocol: After having free access to food and being deprived water for 24 h, 72 normal rats were administered with 1% sucrose aqueous solution, and measured the consumption within 1 h. According to the consumption of sucrose aqueous solution, the rats were randomly divided into six groups, 12 […] per group, i.e. normal control group, model group, positive drug Prozac group (2.5 mg/kg/d), high-dose group (70 mg/kg/d, comprising 11.2 mg of albiflorin), medium-dose group (35 mg/kg/d, comprising 5.6 mg of albiflorin), and low-dose group (17.5 mg/kg/d, comprising 2.8 mg of albiflorin) of Paeonia lactiflora Pall extract. When being modeled, the rats were simultaneously administered with drugs, once a day, for consecutive 21 days. […]
According to the instruction of TRIzol reagent, the total RNAs were extracted by one-step guanidine-isothiocyanate method. The integrity of the extracted total RNAs was confirmed by 0.9% agarose gel electrophoresis, and the content and purity of RNA were determined by UV spectrophotometer. […]
30 μl of 5-HT1A-R-amplified product and 10 μl of Actin-amplified product were mixed, and then subjected to 1.5% agarose gel electrophoresis. […] The ratio of IOD5-HTR/IODActin was the relative quantification of the amplified products, and the intergroup comparisons were carried out.

CN1C(=O)CN=C(c2ccccc2)c2cc(Cl)ccc21 [Diazepam]
Times of Spontaneous Action (ICR mice [1]; 2 mg/kg): 301.85 ± 103.11 | Times of Returning from Dark Box back to Light Box (KM mice): 13.6 ± 3.35 | Number of Sleeping Mice/Group (ICR mice [2]): 12 | Sleep Rate (ICR mice [2]): 12/13*

CN(C)CCC=C1c2ccccc2COc2ccccc21.Cl [Doxepin, Doxepin Hydrochloride]
Sleep Duration (ICR mice [3]; 1 mg/kg): 74.91 ± 16.55 min | Sleep Latency (ICR mice [3]; 1 mg/kg): 4.38 ± 1.60 min | Sleep Duration (ICR mice [3]; 25 mg/kg): 63.60 ± 12.09 min | Sleep Latency (ICR mice [3]; 25 mg/kg): 4.72 ± 2.40 min | Times of Spontaneous Action (ICR mice [1]; 1 mg/kg): 420.50 ± 110.28 | Number of Sleeping Mice/Group (ICR mice [4]; 1 mg/kg): 1 | Sleep Rate (ICR mice [4]; 1 mg/kg): 1/12

C[C@@]12C[C@@]3(O)O[C@@H](O1)[C@]1(COC(=O)c4ccccc4)[C@H]3C[C@@]12O[C@@H]1O[C@H](CO)[C@@H](O)[C@H](O)[C@H]1O [Paeoniflorin, paeoniflorin]
Sleep Duration (ICR mice [3]; 12.5 mg/kg): 74.57 ± 13.02 min | Sleep Latency (ICR mice [3]; 12.5 mg/kg): 4.11 ± 1.52 min | Sleep Duration (ICR mice [3]; 25 mg/kg): 68.64 ± 19.23 min | Sleep Latency (ICR mice [3]; 25 mg/kg): 4.96 ± 2.18 min | Sleep Duration (ICR mice [3]; 50 mg/kg): 73.70 ± 27.88 min | Sleep Latency (ICR mice [3]; 50 mg/kg): 5.17 ± 1.37 min | Sleep Duration (ICR mice [3]; 100 mg/kg): 72.98 ± 20.83 min | Sleep Latency (ICR mice [3]; 100 mg/kg): 28.10 ± 44.63 min | Times of Spontaneous Action (ICR mice [1]; 12.5 mg/kg): 456.71 ± 93.95 | Times of Spontaneous Action (ICR mice [1]; 25 mg/kg): 468.71 ± 73.56 | Times of Spontaneous Action (ICR mice [1]; 50 mg/kg): 503.00 ± 137.04 | Times of Spontaneous Action (ICR mice [1]; 100 mg/kg): 434.45 ± 76.43 | Number of Sleeping Mice/Group (ICR mice [4]; 12.5 mg/kg): 2 | Sleep Rate (ICR mice [4]; 12.5 mg/kg): 2/13 | Number of Sleeping Mice/Group (ICR mice [4]; 25 mg/kg): 4 | Sleep Rate (ICR mice [4]; 25 mg/kg): 1/3 | Number of Sleeping Mice/Group (ICR mice [4]; 50 mg/kg): 5 | Sleep Rate (ICR mice [4]; 50 mg/kg): 5/12 | Number of Sleeping Mice/Group (ICR mice [4]; 100 mg/kg): 3 | Sleep Rate (ICR mice [4]; 100 mg/kg): 3/11

CNCCC(Oc1ccc(C(F)(F)F)cc1)c1ccccc1 (centres unmarked) [Positive Drug, fluoxetine hydrochloride]
mRNA expression of 5-HT1A receptor (ratio IOD5-HTR/IODActin) (5-HT1A receptor): 0.63 ± 0.21
